23 molecules from US7638631B2, “Methylene dipiperidine derivatives” (Glaxo Group Limited, priority 2004, dated 2009) can be followed below.

One test deals with T1, human H1 receptor (Homo sapiens, UniProt P35367).
T1 construct: expressed in transfected cells
Description: Histamine H1 functional antagonist assay (FLIPR, Chinese hamster ovary cells). It is filed as cell-based. The conditions noted are these: H1 cell line, FLIPR fluorescence, histamine at EC80; Cheng-Prusoff; averages of a number of experiments; read-out: functional pKi (fpKi), histamine H1 functional antagonist assay (converted). As for the experimental part:
(iii) Generation of Histamine H1 Cell Line
The human H1 receptor was cloned using known procedures described in the literature [Biochem. Biophys. Res. Commun. 1994, 201(2), 894]. Chinese hamster ovary cells stably expressing the human Hi receptor were generated according to known procedures described in the literature [Br. J. Pharmacol. 1996, 117(6), 1071].
(II) Histamine H1 Functional Antagonist Assay
The histamine H1 cell line was seeded into non-coated black-walled clear bottom 384-well tissue culture plates in alpha minimum essential medium (Gibco/Invitrogen, cat no. 22561-021), supplemented with 10% dialysed foetal calf serum (Gibco/Invitrogen cat no. 12480-021) and 2 mM L-glutamine (Gibco/Invitrogen cat no 25030-024) and maintained overnight at 5% CO2, 37° C.
Excess medium was removed from each well to leave 10 μl. 30 μl loading dye (250 μM Brilliant Black, 2 μM Fluo-4 diluted in Tyrodes buffer+probenecid (145 mM NaCl, 2.5 mM KCl, 10 mM HEPES, 10 mM D-glucose, 1.2 mM MgCl2, 1.5 mM CaCl2, 2.5 mM probenecid, pH adjusted to 7.40 with NaOH 1.0 M)) was added to each well and the plates were incubated for 60 minutes at 5% CO2, 37° C.
10 μl of test compound, diluted to the required concentration in Tyrodes buffer+probenecid (or 10 μl Tyrodes buffer+probenecid as a control) was added to each well and the plate incubated for 30 min at 37° C., 5% CO2. The plates were then placed into a FLIPR™ (Molecular Devices, UK) to monitor cell fluorescence (λex=488 nm, λEM=540 nm) in the manner described in Sullivan et al. (In: Lambert DG (ed.), Calcium Signaling Protocols, New Jersey: Humana Press, 1999, 125-136) before and after the addition of 10 μl histamine at a concentration that results in the final assay concentration of histamine being EC80.
Functional antagonism is indicated by a suppression of histamine induced increase in fluorescence, as measured by the FLIPR™ system (Molecular Devices). By means of concentration effect curves, functional affinities are determined using standard pharmacological mathematical analysis.

Test [1] has as its target T2, histamine H3 receptor (Homo sapiens, UniProt Q9Y5N1).
T2 construct: expressed in transfected cells; host or cells: CHO K1 cells carrying pSwitch, transfected with pGeneH3, mifepristone-induced; clone 3H3; membranes
Description: Histamine H3 functional antagonist assay (method A), [35S]-GTPγS SPA on membranes. It is filed as biochemical. As to conditions: membrane from cultured H3 cells, histamine at EC80, averages of a number of experiments, read-out: functional pKi (fpKi), histamine H3 functional antagonist assay (method A) (converted). From the text: (§1) A membrane preparation containing histamine H3 receptors may be prepared in accordance with the following procedures:
(§2) DNA encoding the human histamine H3 gene (Huvar, A. et al. (1999) Mol. Pharmacol. 55(6), 1101-1107) was cloned into a holding vector, pCDNA3.1 TOPO (InVitrogen) and its cDNA was isolated from this vector by restriction digestion of plasmid DNA with the enzymes BamH1 and Not-1 and ligated into the inducible expression vector pGene (InVitrogen) digested with the same enzymes. The GeneSwitch™ system (a system where in transgene expression is switched off in the absence of an inducer and switched on in the presence of an inducer) was performed as described in U.S. Pat. Nos.: 5,364,791; 5,874,534; and 5,935,934. Ligated DNA was transformed into competent DH5α E. coli host bacterial cells and plated onto Luria Broth (LB) agar containing Zeocin™ (an antibiotic which allows the selection of cells expressing the sh ble gene which is present on pGene and pSwitch) at 50 μg ml^−1. Colonies containing the re-ligated plasmid were identified by restriction analysis. DNA for transfection into mammalian cells was prepared from 250 ml cultures of the host bacterium containing the pGeneH3 plasmid and isolated using a DNA preparation kit (Qiagen Midi-Prep) as per manufacturers guidelines (Qiagen). CHO K1 cells previously transfected with the pSwitch regulatory plasmid (InVitrogen) were seeded at 2×10e6 cells per T75 flask in Complete Medium, containing Hams F12 (GIBCOBRL, Life Technologies) medium supplemented with 10% v/v dialysed foetal bovine serum, L-glutamine, and hygromycin (100 μg ml^−1), 24 hours prior to use. Plasmid DNA was transfected into the cells using Lipofectamine plus according to the manufacturers guidelines (InVitrogen). 48 hours post transfection cells were placed into complete medium supplemented with 500 μg ml^−1 Zeocin™.
10-14 days post selection 10 nM Mifepristone (InVitrogen), was added to the culture medium to induce the expression of the receptor. 18 hours post induction cells were detached from the flask using ethylenediamine tetra-acetic acid (EDTA; 1:5000; InVitrogen), following several washes with phosphate buffered saline pH 7.4 and resuspended in Sorting Medium containing Minimum Essential Medium (MEM), without phenol red, and supplemented with Earles salts and 3% Foetal Clone II (Hyclone). […] Receptor bound antibody was detected by incubation of the cells for 60 minutes on ice with a goat anti rabbit antibody, conjugated with Alexa 488 fluorescence marker (Molecular Probes). Following two further washes with Sorting Medium, cells were filtered through a 50 μm Filcon™ (BD Biosciences) and then analysed on a FACS Vantage SE Flow Cytometer fitted with an Automatic Cell Deposition Unit. […]
(GTPγS resists hydrolysis and so accumulates on activated G proteins.)

The target in test [2] is T2, histamine H3 receptor. The test can be described thus: Histamine H3 functional antagonist assay (method B), [35S]-GTPγS SPA on membranes. It is filed as biochemical. The conditions noted are these: membrane from cultured H3 cells, histamine at EC80, averages of a number of experiments, read-out: functional pKi (fpKi), histamine H3 functional antagonist assay (method B) (converted).
Text: as §1, §2
10-14 days post selection 10 nM Mifepristone (InVitrogen), was added to the culture medium to induce the expression of the receptor. 18 hours post induction cells were detached from the flask using ethylenediamine tetra-acetic acid (EDTA; 1:5000; InVitrogen), following several washes with phosphate buffered saline pH 7.4 and resuspended in Sorting Medium containing Minimum Essential Medium (MEM), without phenol red, and supplemented with Earles salts and 3% Foetal Clone II (Hyclone). Approximately 1×10e7 cells were examined for receptor expression by staining with a rabbit polyclonal antibody, 4a, raised against the N-terminal domain of the histamine H3 receptor, incubated on ice for 60 minutes, followed by two washes in sorting medium. Receptor bound antibody was detected by incubation of the cells for 60 minutes on ice with a goat anti rabbit antibody, conjugated with Alexa 488 fluorescence marker (Molecular Probes). Following two further washes with Sorting Medium, cells were filtered through a 50 μm Filcon™ (BD Biosciences) and then analysed on a FACS Vantage SE Flow Cytometer fitted with an Automatic Cell Deposition Unit. Control cells were non-induced cells treated in a similar manner. Positively stained cells were sorted as single cells into 96-well plates, containing Complete Medium containing 500 μg ml^−1 Zeocin™ and allowed to expand before reanalysis for receptor expression via antibody and ligand binding studies. One clone, 3H3, was selected for membrane preparation.
All steps of the protocol are carried out at 4° C. and with pre-cooled reagents. The cell pellet is resuspended in 10 volumes of homogenisation buffer (50 mM N-2-hydroxyethylpiperazine-N′-2-ethanesulfonic acid (HEPES), 1 mM ethylenediamine tetra-acetic acid (EDTA), pH 7.4 with KOH, supplemented with 10e-6M leupeptin (acetyl-leucyl-leucyl-arginal; Sigma L2884), 25 μg/ml bacitracin (Sigma B0125), 1 mM phenylmethylsulfonyl fluoride (PMSF) and 2×10e-6M pepstain A (Sigma)). The cells are then homogenised by 2×15 second bursts in a 1 liter glass Waring blender, followed by centrifugation at 500 g for 20 minutes. […]

T2 sequence (Q9Y5N1 whole entry): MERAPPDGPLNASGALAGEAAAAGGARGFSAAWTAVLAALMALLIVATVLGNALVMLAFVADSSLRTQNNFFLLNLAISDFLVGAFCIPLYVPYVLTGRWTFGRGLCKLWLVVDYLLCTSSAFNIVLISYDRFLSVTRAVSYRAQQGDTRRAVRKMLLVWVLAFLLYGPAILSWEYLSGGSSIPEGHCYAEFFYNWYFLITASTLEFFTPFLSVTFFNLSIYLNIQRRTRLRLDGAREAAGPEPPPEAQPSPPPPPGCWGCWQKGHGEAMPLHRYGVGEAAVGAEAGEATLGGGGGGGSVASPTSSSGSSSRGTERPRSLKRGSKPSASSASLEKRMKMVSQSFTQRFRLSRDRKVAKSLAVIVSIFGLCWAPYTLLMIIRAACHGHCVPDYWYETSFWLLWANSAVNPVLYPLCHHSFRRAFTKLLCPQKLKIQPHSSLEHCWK
T1 sequence (P35367 whole entry): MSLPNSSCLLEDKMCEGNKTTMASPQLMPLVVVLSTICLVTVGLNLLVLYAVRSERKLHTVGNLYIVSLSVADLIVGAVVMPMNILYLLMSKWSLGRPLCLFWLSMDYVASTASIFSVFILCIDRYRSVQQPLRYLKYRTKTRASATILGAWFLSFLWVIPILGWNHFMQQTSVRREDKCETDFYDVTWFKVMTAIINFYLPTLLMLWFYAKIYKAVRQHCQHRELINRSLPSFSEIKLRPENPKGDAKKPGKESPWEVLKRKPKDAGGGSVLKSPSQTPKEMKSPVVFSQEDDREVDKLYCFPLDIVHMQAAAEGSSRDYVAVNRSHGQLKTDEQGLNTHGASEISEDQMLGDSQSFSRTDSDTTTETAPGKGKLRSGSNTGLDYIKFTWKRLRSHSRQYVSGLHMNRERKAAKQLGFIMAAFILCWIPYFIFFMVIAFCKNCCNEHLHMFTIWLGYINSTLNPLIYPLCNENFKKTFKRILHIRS

Consider `CC(C)NC(=O)c1cnc(N2CCC(CC3CCN(C4CCC4)CC3)CC2)cn1` [Example E6, 5-{4-[(1-Cyclobutyl-4-piperidinyl)methyl]-1-piperidinyl}-N-(1-methylethyl)-2-pyrazinecarboxamide], for which the Ki was above 1000 nM on human H1 receptor and at most 1 nM on histamine H3 receptor [1].

Regarding `CC(C)NC(=O)c1cnc(N2CCC(CC3CCN(C(C)C)CC3)CC2)cn1` [Example E7], at histamine H3 receptor [1], the Ki was at most 10 nM.

Regarding `CNC(=O)c1cnc(N2CCC(CC3CCN(C4CCC4)CC3)CC2)cn1` [Example E8], the Ki on histamine H3 receptor [2] is at most 1 nM. With `CCNC(=O)c1cnc(N2CCC(CC3CCN(C4CCC4)CC3)CC2)cn1` [Example E9, 5-{4-[(1-cyclobutyl-4-piperidinyl)methyl]-1-piperidinyl}-N-ethyl-2-pyrazinecarboxamide], the results for the Ki at histamine H3 receptor [2] and on human H1 receptor were at most 1 nM and above 1000 nM, respectively. For `CNC(=O)c1ccc(N2CCC(CC3CCN(C4CCC4)CC3)CC2)cn1` [Example E11, 5-{4-[(1-Cyclobutyl-4-piperidinyl)methyl]-1-piperidinyl}-N-methyl-2-pyridinecarboxamide] the same measures were at most 1 nM and above 1000 nM.

Turning to `CNC(=O)c1ccc(N2CCC(CC3CCN(C(C)C)CC3)CC2)cn1` [Example E12, N-Methyl-5-(4-{[1-(1-methylethyl)-4-piperidinyl]methyl}-1-piperidinyl)-2-pyridinecarboxamide], the Ki on histamine H3 receptor [2] and on histamine H3 receptor [1] was at most 1 nM each time. As to `Cc1noc(-c2ccc(N3CCC(CC4CCN(C(C)C)CC4)CC3)cc2)n1` [Example E13, 1-(1-Methylethyl)-4-({1-[4-(3-methyl-1,2,4-oxadiazol-5-yl)phenyl]-4-piperidinyl}methyl)piperidine], the Ki on histamine H3 receptor [1] was at most 0.316 nM. On to `Cc1noc(-c2ccc(N3CCC(CC4CCN(C(C)C)CC4)CC3)c(F)c2)n1` [Example E14, 1-[2-Fluoro-4-(3-methyl-1,2,4-oxadiazol-5-yl)phenyl]-4-{[1-(1-methylethyl)-4-piperidinyl]methyl}piperidine], for which, on histamine H3 receptor [2], the Ki is at most 1 nM. Same read-out and setting: the same measure for `Cc1noc(-c2ccc(N3CCC(CC4CCN(C(C)C)CC4)CC3)cn2)n1` [Example E15, 5-(4-{[1-(1-Methylethyl)-4-piperidinyl]methyl}-1-piperidinyl)-2-(3-methyl-1,2,4-oxadiazol-5-yl)pyridine]: at most 1 nM. For the molecule `Cc1noc(-c2ccc(N3CCC(CC4CCN(C(C)C)CC4)CC3)cc2F)n1` [Example E16, 1-[3-fluoro-4-(3-methyl-1,2,4-oxadiazol-5-yl)phenyl]-4-{[1-(1-methylethyl)-4-piperidinyl]methyl}piperidine], the Ki on histamine H3 receptor [2] was at most 0.316 nM. Same read-out and setting: with `Cc1noc(-c2ccc(N3CCC(CC4CCN(C5CCC5)CC4)CC3)cn2)n1` [Example E17, 5-{4-[(1-cyclobutyl-4-piperidinyl)methyl]-1-piperidinyl}-2-(3-methyl-1,2,4-oxadiazol-5-yl)pyridine] the figure was at most 1 nM; with `CCN1CCC(CC2CCN(c3ccc(-c4nc(C)no4)cc3)CC2)CC1` [Example E18], at most 0.316 nM; with `CC(C)N1CCC(CC2CCN(c3ccc(C#N)nc3)CC2)CC1` [Example E21, 5-(4-{[1-(1-Methylethyl)-4-piperidinyl]methyl}-1-piperidinyl)-2-pyridinecarbonitrile], at most 1 nM. For the molecule `N#Cc1ccc(N2CCC(CC3CCN(C4CCC4)CC3)CC2)cn1` [Example E22, 5-{4-[(1-Cyclobutyl-4-piperidinyl)methyl]-1-piperidinyl}-2-pyridinecarbonitrile], on histamine H3 receptor [2], the Ki was at most 0.316 nM. Same read-out and setting: the same measure for `CC(=O)c1ccc(N2CCC(CC3CCN(C(C)C)CC3)CC2)cn1` [Example E23, 1-{[5-(4-[1-(1-Methylethyl)-4-piperidinyl]methyl}-1-piperidinyl)-2-pyridinyl]ethanone]: at most 1 nM; for `CC(=O)c1ccc(N2CCC(CC3CCN(C4CCC4)CC3)CC2)cn1` [Example E24, 1-(5-{4-[(1-Cyclobutyl-4-piperidinyl)methyl]-1-piperidinyl}-2-pyridinyl)ethanone]: at most 0.316 nM. The same measure, in the same setting: with `CC(=O)c1ccc(N2CCC(CC3CCN(C4CCC4)CC3)CC2)cc1` [Example E25, 1-(4-{4-[(1-Cyclobutyl-4-piperidinyl)methyl]-1-piperidinyl}phenyl)ethanone] the figure was at most 1 nM. As for `CC(=O)c1ccc(N2CCC(CC3CCN(C(C)C)CC3)CC2)cc1` [Example E26], the Ki on histamine H3 receptor [2] was at most 1 nM. Still for that read-out and setting: with `CCN1CCC(CC2CCN(c3ccc(C(C)=O)cc3)CC2)CC1` [Example E27] the figure was at most 1 nM.

Turning to `CC(=O)c1ccc(N2CCC(CC3CCN(C4CCC4)CC3)CC2)nc1` [Example E29], on histamine H3 receptor [2], the Ki is at most 1 nM.

As for `O=C(c1ccc(N2CCC(CC3CCN(C4CCC4)CC3)CC2)cc1)C(F)(F)F` [Example E31], the Ki on histamine H3 receptor [2] is at most 1 nM.

Take `FC(F)(F)c1ccc(N2CCC(CC3CCN(C4CCC4)CC3)CC2)nn1` [Example E34]: at histamine H3 receptor [2], the Ki was at most 1 nM. As to `CC(C)N1CCC(CC2CCN(c3cnc(C(F)(F)F)nc3)CC2)CC1` [Example E36, 5-(4-{[1-(1-Methylethyl)-4-piperidinyl]methyl}-1-piperidinyl)-2-(trifluoromethyl)pyrimidine], the Ki on histamine H3 receptor [2] was at most 10 nM; at human H1 receptor, above 1000 nM.
